# Reference: paper PMC12218921, “An adaptive peptide-binding site in ubiquitin receptor hRpn13 revealed by structural studies” (Nature Communications, 2025)
# No end group written: not given here.
# What was measured:
# [1] = system: hRpn13 Pru; test: 1H-15N HSQC NMR, DTT versus TCEP in buffer; assay type: binding, human; conditions: 1 mM DTT or TCEP, 15N-hRpn13 Pru, 25 °C, 850 MHz
# Excerpt: Although DTT is trapped bound to C88 in the crystal, we expected that its interaction with hRpn13 in solution is likely to be transient and dynamic. Nonetheless, we tested whether NMR spectroscopy could detect differences between hRpn13 Pru dissolved in buffer containing DTT versus TCEP. We used previously obtained NMR resonance assignments[13] and 2D ^1H-^15N HSQC experiments to detect the hRpn13 amide signals, which are sensitive to changes in their chemical environment, for ^15N-labeled hRpn13 Pru with either 1 mM DTT or TCEP present in the buffer. […] C60 and C80 by contrast show no spectral perturbations (Supplementary Fig. 8a).
# All ^1H-^15N HSQC experiments were acquired on samples dissolved in NMR buffer (20 mM sodium phosphate, pH 6.5, 50 mM NaCl, 1 mM TCEP, 10% D2O) unless specified, in which case 2 mM DTT replaced TCEP. The samples were purified in DTT-containing buffer and then exchanged into NMR buffer by using Zeba Protein Desalting columns (Thermo Fisher Scientific). The pH was measured and adjusted to 6.5. […] The data were processed by NMRpipe[46] (version 11.5) and spectra visualized and analyzed with NMR-FAM-SPARKY[47] (version 3.190) by using previous chemical shift assignments[12],[23] and NMRbox[48]. The amide nitrogen and hydrogen chemical shift perturbations (CSP) were mapped for each amino acid according to Eq. 1.1 CSP=0.2ΔδN2+ΔδH2 […]
# [2] = target: T1, hRpn13_ΔMTT (Homo sapiens, UniProt Q16186); test: Competition assay by fluorescence polarization (unlabeled peptide vs TAMRA-hRpn2 (940–953)); assay type: binding
# T1 construct: recombinant plasmid of hRpn13 Pru (1–150) cloned into the pRSET vector; GST (N, cleaved yes); residual Gly-Ser (^cG-^dS) left after cleavage; made in house; host or cells: Escherichia coli BL21 (DE3); pGEX-4T-1 plasmid synthesized by GenScript (Addgene 237412)
# T1 sequence (Q16186 4-150, stated change not applied): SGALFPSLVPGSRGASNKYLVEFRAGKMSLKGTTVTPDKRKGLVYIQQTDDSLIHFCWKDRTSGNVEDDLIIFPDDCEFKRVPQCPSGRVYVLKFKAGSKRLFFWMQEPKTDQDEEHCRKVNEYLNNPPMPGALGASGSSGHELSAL
# [3] = target: T1, hRpn13_ΔMTT; test: 1H-15N HSQC NMR titration / chemical shift perturbation (CSP), 0.1 mM 15N-labeled hRpn13_ΔMTT with unlabeled peptide; assay type: binding
# Procedure: The similar spectral effects by adding ENT or ENT_M1S is readily apparent by quantifying and plotting the shifting across the Pru amino acid sequence (Supplementary Fig. 10b, c).
# All ^1H-^15N HSQC experiments were acquired on samples dissolved in NMR buffer (20 mM sodium phosphate, pH 6.5, 50 mM NaCl, 1 mM TCEP, 10% D2O) unless specified, in which case 2 mM DTT replaced TCEP. The samples were purified in DTT-containing buffer and then exchanged into NMR buffer by using Zeba Protein Desalting columns (Thermo Fisher Scientific). The pH was measured and adjusted to 6.5. All NMR experiments were performed at 25 °C on a Bruker Advance 600 MHz spectrometer equipped with a cryogenically cooled probe. The data were processed by NMRpipe[46] (version 11.5) and spectra visualized and analyzed with NMR-FAM-SPARKY[47] (version 3.190) by using previous chemical shift assignments[12],[23] and NMRbox[48]. The amide nitrogen and hydrogen chemical shift perturbations (CSP) were mapped for each amino acid according to Eq. 1.1 CSP=0.2ΔδN2+ΔδH2
# ΔδH, change in amide proton value (in parts per million); ΔδN, change in amide nitrogen value (in parts per million).
# Supplementary Figure 9: 2D NMR experiments indicate ENT binding to hRpn13 Pru. a) ^1H-^15N HSQC spectrum of 0.1 mM ^15N-labeled hRpn13 (1-150, black) or hRpn13_ΔMTT (green). Select residues are labeled with amino acids in the Pru helix, proteasome binding region, and termini in blue, purple, and orange, respectively. Arrows indicate direction of shifting. b, c) ^1H-^15N HSQC spectra of 0.1 mM of ^15N-labeled hRpn13_ΔMTT alone (black) or with ENT present at equimolar (red), 2-fold (orange), 5-fold (yellow), 10-fold (green), 15-fold (blue), or 20-fold (purple) molar excess. […] All spectra were acquired at 600 MHz and 25°C in 20 mM sodium phosphate, pH 6.5, 100 mM NaCl, 1 mM TCEP, 10% D2O. ppm, part per million.
# [4] = system: hRpn13 F76 arginine substitution; conditions: cited from earlier work
molecule,measurement,setting,value
"O[C@@H](CS)[C@@H](O)CS (racemic) [DTT, dithiothreitol]","HSQC signal shifting, DTT versus TCEP",[1],"slight signal shifting, including for C88"
GPGSMTT [ENT],concentration required to completely decrease the FP to background levels,"[2]; 80 nM hRpn13_ΔMTT, 10 nM TAMRA-hRpn2 (940–953), N = 6",> 3 mM
same,concentrations at which peptides can displace hRpn2 from hRpn13,[2]; FP competition,> 0.5 mM
same,IC50,"[2]; peer review file, FP competition with TAMRA-hRpn2 (940-953), read-out: IC50 (FP decreased to background levels)",> 3 mM
same,HSQC signal shifting of hRpn13_ΔMTT,"[3]; 100 μM 15N-hRpn13_ΔMTT, peptide up to 20-fold molar excess, pH 6.5, 25 °C, 600 MHz","small concentration-dependent shifting of the same (T114, D117-E119, C121) and additional (W61, M109, H120, H145) hRpn13 amide signals"
same,strength of binding to hRpn13 Pru (by HSQC),"[3]; 100 μM 15N-hRpn13_ΔMTT, varying molar ratios",weak interaction between ENT and hRpn13 Pru
same,CSP A6,[3]; 20-fold molar excess peptide,0.001342
same,CSP A28,[3]; 20-fold molar excess peptide,0.00743
same,CSP A100,[3]; 20-fold molar excess peptide,0.002049
same,CSP A136,[3]; 20-fold molar excess peptide,0.002049
same,CSP A139,[3]; 20-fold molar excess peptide,0.0004472
same,CSP A149,[3]; 20-fold molar excess peptide,0.003493
same,CSP C60,[3]; 20-fold molar excess peptide,0.003715
same,CSP C80,[3]; 20-fold molar excess peptide,0.002049
same,CSP C88,[3]; 20-fold molar excess peptide,0.002449
same,CSP C121,[3]; 20-fold molar excess peptide,0.02471
same,CSP D41,[3]; 20-fold molar excess peptide,0
same,CSP D53,[3]; 20-fold molar excess peptide,0.002049
same,CSP D54,[3]; 20-fold molar excess peptide,0.001789
same,CSP D63,[3]; 20-fold molar excess peptide,0.004494
same,CSP D71,[3]; 20-fold molar excess peptide,0.007
same,CSP D72,[3]; 20-fold molar excess peptide,0.007759
same,CSP D78,[3]; 20-fold molar excess peptide,0.005899
same,CSP D79,[3]; 20-fold molar excess peptide,0.002864
same,CSP D115,[3]; 20-fold molar excess peptide,0.009859
same,CSP D117,[3]; 20-fold molar excess peptide,0.033
same,CSP E25,[3]; 20-fold molar excess peptide,0.009859
same,CSP E70,[3]; 20-fold molar excess peptide,0.005459
same,CSP E81,[3]; 20-fold molar excess peptide,0.001342
same,CSP E111,[3]; 20-fold molar excess peptide,0.01601
same,CSP E118,[3]; 20-fold molar excess peptide,0.06429
same,CSP E119,[3]; 20-fold molar excess peptide,0.03311
same,CSP E146,[3]; 20-fold molar excess peptide,0.01203
same,CSP F8,[3]; 20-fold molar excess peptide,0.002049
same,CSP F26,[3]; 20-fold molar excess peptide,0.0264
same,CSP F59,[3]; 20-fold molar excess peptide,0.002864
same,CSP F76,[3]; 20-fold molar excess peptide,0.007603
same,CSP F82,[3]; 20-fold molar excess peptide,0.004219
same,CSP F98,[3]; 20-fold molar excess peptide,0.009391
same,CSP F106,[3]; 20-fold molar excess peptide,0.002864
same,CSP F107,[3]; 20-fold molar excess peptide,0.001789
same,CSP G5,[3]; 20-fold molar excess peptide,0
same,CSP G17,[3]; 20-fold molar excess peptide,0.002683
same,CSP G29,[3]; 20-fold molar excess peptide,0.003286
same,CSP G45,[3]; 20-fold molar excess peptide,0.006148
same,CSP G67,[3]; 20-fold molar excess peptide,0.001342
same,CSP G91,[3]; 20-fold molar excess peptide,0.002049
same,CSP G101,[3]; 20-fold molar excess peptide,0.004669
same,CSP G135,[3]; 20-fold molar excess peptide,0.002449
same,CSP G138,[3]; 20-fold molar excess peptide,0.001095
same,CSP G141,[3]; 20-fold molar excess peptide,0.002049
same,CSP G144,[3]; 20-fold molar excess peptide,0.001342
same,CSP H58,[3]; 20-fold molar excess peptide,0.007057
same,CSP H120,[3]; 20-fold molar excess peptide,0.07737
same,CSP H145,[3]; 20-fold molar excess peptide,0.06834
same,CSP I49,[3]; 20-fold molar excess peptide,0.002408
same,CSP I57,[3]; 20-fold molar excess peptide,0.004025
same,CSP I75,[3]; 20-fold molar excess peptide,0.001673
same,CSP K21,[3]; 20-fold molar excess peptide,0.0004472
same,CSP K30,[3]; 20-fold molar excess peptide,0.01021
same,CSP K34,[3]; 20-fold molar excess peptide,0.002408
same,CSP K42,[3]; 20-fold molar excess peptide,0.00502
same,CSP K62,[3]; 20-fold molar excess peptide,0.001342
same,CSP K83,[3]; 20-fold molar excess peptide,0.005367
same,CSP K97,[3]; 20-fold molar excess peptide,0.002449
same,CSP K99,[3]; 20-fold molar excess peptide,0.001095
same,CSP K103,[3]; 20-fold molar excess peptide,0.003131
same,CSP K113,[3]; 20-fold molar excess peptide,0.008729
same,CSP K123,[3]; 20-fold molar excess peptide,0.01565
same,CSP L7,[3]; 20-fold molar excess peptide,0.002408
same,CSP L11,[3]; 20-fold molar excess peptide,0.001342
same,CSP L23,[3]; 20-fold molar excess peptide,0.004382
same,CSP L33,[3]; 20-fold molar excess peptide,0.002
same,CSP L46,[3]; 20-fold molar excess peptide,0.004899
same,CSP L56,[3]; 20-fold molar excess peptide,0.002236
same,CSP L73,[3]; 20-fold molar excess peptide,0.003493
same,CSP L96,[3]; 20-fold molar excess peptide,0.001095
same,CSP L105,[3]; 20-fold molar excess peptide,0.006017
same,CSP L128,[3]; 20-fold molar excess peptide,0.003
same,CSP L137,[3]; 20-fold molar excess peptide,0.002449
same,CSP L147,[3]; 20-fold molar excess peptide,0.01114
same,CSP L150,[3]; 20-fold molar excess peptide,0.003493
same,CSP M31,[3]; 20-fold molar excess peptide,0.003131
same,CSP M109,[3]; 20-fold molar excess peptide,0.01978
same,CSP M133,[3]; 20-fold molar excess peptide,0.001095
same,CSP N20,[3]; 20-fold molar excess peptide,0.002049
same,CSP N68,[3]; 20-fold molar excess peptide,0.001095
same,CSP N125,[3]; 20-fold molar excess peptide,0.002049
same,CSP N129,[3]; 20-fold molar excess peptide,0.004025
same,CSP N130,[3]; 20-fold molar excess peptide,0.001673
same,CSP Q50,[3]; 20-fold molar excess peptide,0.003742
same,CSP Q51,[3]; 20-fold molar excess peptide,0.004025
same,CSP Q87,[3]; 20-fold molar excess peptide,0.003742
same,CSP R16,[3]; 20-fold molar excess peptide,0.001095
same,CSP R27,[3]; 20-fold molar excess peptide,0.001095
same,CSP R43,[3]; 20-fold molar excess peptide,0.002191
same,CSP R64,[3]; 20-fold molar excess peptide,0.004025
same,CSP R92 backbone,[3]; 20-fold molar excess peptide,0.003131
same,CSP R92 sidechain,[3]; 20-fold molar excess peptide,0.016
same,CSP R104,[3]; 20-fold molar excess peptide,0.008112
same,CSP R122,[3]; 20-fold molar excess peptide,0.01435
same,CSP S4,[3]; 20-fold molar excess peptide,0.009602
same,CSP S10,[3]; 20-fold molar excess peptide,0.001342
same,CSP S15,[3]; 20-fold molar excess peptide,0.001342
same,CSP S19,[3]; 20-fold molar excess peptide,0.001342
same,CSP S32,[3]; 20-fold molar excess peptide,0.001342
same,CSP S55,[3]; 20-fold molar excess peptide,0.002864
same,CSP S66,[3]; 20-fold molar excess peptide,0.004472
same,CSP S102,[3]; 20-fold molar excess peptide,0.002049
same,CSP S140,[3]; 20-fold molar excess peptide,0.001342
same,CSP S142,[3]; 20-fold molar excess peptide,0.002049
same,CSP S143,[3]; 20-fold molar excess peptide,0.002236
same,CSP S148,[3]; 20-fold molar excess peptide,0.003286
same,CSP T36,[3]; 20-fold molar excess peptide,0.00882
same,CSP T37,[3]; 20-fold molar excess peptide,0.003578
same,CSP T39,[3]; 20-fold molar excess peptide,0.001342
same,CSP T52,[3]; 20-fold molar excess peptide,0
same,CSP T65,[3]; 20-fold molar excess peptide,0.001342
same,CSP T114,[3]; 20-fold molar excess peptide,0.02379
same,CSP V12,[3]; 20-fold molar excess peptide,0.002049
same,CSP V24,[3]; 20-fold molar excess peptide,0.003715
same,CSP V47,[3]; 20-fold molar excess peptide,0.008497
same,CSP V69,[3]; 20-fold molar excess peptide,0.004494
same,CSP V93,[3]; 20-fold molar excess peptide,0.004494
same,CSP V95,[3]; 20-fold molar excess peptide,0.002683
same,CSP V124,[3]; 20-fold molar excess peptide,0.0139
same,CSP W61,[3]; 20-fold molar excess peptide,0.0278
same,CSP W108,[3]; 20-fold molar excess peptide,0.005899
same,CSP Y22,[3]; 20-fold molar excess peptide,0.01048
same,CSP Y48,[3]; 20-fold molar excess peptide,0.003715
same,CSP Y94,[3]; 20-fold molar excess peptide,0.00502
same,CSP Y127,[3]; 20-fold molar excess peptide,0.00531
same,effect at Pru-B-binding surface (HSQC),[3]; e.g. F76 and D78 amide signals,No effects were observed at the Pru-B-binding surface
ubiquitin,hRpn13 binding to ubiquitin on arginine substitution of F76,[4],abolishes hRpn13 binding to ubiquitin
